These results are taken from patent US20250304549A1, “HYDROXYAMIDE DERIVATIVE AND USE THEREOF” (SICHUAN HUIYU PHARMACEUTICAL CO., LTD., priority 2022, published 2025).

One assay has as its system NCI-H69 cells. Kind of assay: In vitro cell inhibition assay - NCI-H69 cell proliferation (CellTiter-Glo). Type of assay: cell-based. The following applies: Homo sapiens, NCI-H69, H69 small cell lung cancer cell proliferation. In short, it runs like this: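 7-day exposure at 37° C., 5% CO2 to compounds serially diluted 5-fold (8 concentrations) in RPMI-640 containing 20% FBS, after overnight attachment at 1×10^3 cells/well. Read-out: CellTiter-Glo luminescence (RLU); IC50 from curve fit of inhibition rate.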

For another assay, the target named is pan-HDAC. Kind of assay: In vitro enzyme inhibition assay - HDAC (HDAC-Glo I/II), pan-HDAC. Type of assay: biochemical. A digest of the protocol:
(§1)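 Eight compound concentrations (5-fold gradient; 1 mM DMSO stock) were assayed by HDAC-Glo I/II luminescence. IC50 was obtained by four-parameter fitting.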

A further assay concerns NCI-H526 cells. Put plainly: In vitro cell inhibition assay - NCI-H526 cell proliferation (CellTiter-Glo). Type of assay: cell-based. The following applies: Homo sapiens, NCI-H526, 120 h, H526 small cell lung cancer cell proliferation, 5 days. A digest of the protocol: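 NCI-H526 cells plated at 1×10^3 per well overnight, then treated with 8 concentrations (5-fold dilutions) in RPMI-640 with 10% FBS for 5 days at 37° C., 5% CO2. Viable cells quantified by CellTiter-Glo luminescence; IC50 fitted from inhibition rates relative to no-inhibitor and no-cell controls.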

The target in another assay is HDAC8 (Homo sapiens (Human), UniProt Q9BY41). Put plainly: In vitro enzyme inhibition assay - HDAC (HDAC-Glo I/II), HDAC8. Type of assay: biochemical. The following applies: read-out: HDAC IC50 (nM) HDAC 8. In short, it runs like this: as §1
HDAC8, sequence (Q9BY41 whole entry): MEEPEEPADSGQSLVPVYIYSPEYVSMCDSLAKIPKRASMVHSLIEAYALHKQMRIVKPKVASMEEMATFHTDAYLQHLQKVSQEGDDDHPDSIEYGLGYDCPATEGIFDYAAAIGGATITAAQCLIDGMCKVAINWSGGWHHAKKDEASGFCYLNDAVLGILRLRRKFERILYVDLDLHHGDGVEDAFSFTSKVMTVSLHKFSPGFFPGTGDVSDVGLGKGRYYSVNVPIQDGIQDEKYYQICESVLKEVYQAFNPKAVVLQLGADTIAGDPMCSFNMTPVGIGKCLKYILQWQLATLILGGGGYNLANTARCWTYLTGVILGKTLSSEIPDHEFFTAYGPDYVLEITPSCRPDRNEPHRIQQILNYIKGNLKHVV
Another assay deals with LSD1 (Homo sapiens (Human), UniProt O60341). Kind of assay: In vitro enzyme inhibition assay - LSD1 (HTRF). Type of assay: biochemical.
A further assay has as its target HDAC1 (Homo sapiens (Human), UniProt Q13547). Put plainly: In vitro enzyme inhibition assay - HDAC (HDAC-Glo I/II), HDAC1. The assay is classed as biochemical. Conditions: read-out: HDAC IC50 (nM) HDAC 1. On the procedure: 2. In Vitro Enzyme Inhibition Assay—HDAC
The effect of the compound on the enzymatic activity of pan-HDAC and two isoforms (HDAC1 and HDAC8) was examined using the HDAC-Glo I/II Assay and Screening System assay to assess the level of inhibition of HDAC protease activity and selectivity in each isoform. The proteins and detection reagents were from the HDAC-Glo™ I/II Assay and Screening System (Promega). A 1 mM stock solution of the compound was prepared in DMSO and diluted in a 5-fold gradient to create a series of 8 concentrations, and a specific volume of the highest concentration was diluted 25 times with HDAC Buffer to obtain 4× working solution of the compound. […] The 384-well plate was then read on a multifunctional microplate reader, with the Luminescence channel selected to record Luminescence values (RLU). The inhibition rate was calculated using the following formula: […]
Note: ‘Negative’ refers to the group without the inhibitor; ‘Blank’ refers to the group without the enzyme.
The IC50 value was calculated by fitting the inhibition rate by GraphPad Prism software, employing log (inhibitor) vs. response-Variable Slope (four parameters) model.

Another assay concerns NCI-H1417 cells. Kind of assay: In vitro cell inhibition assay - H1417 cell proliferation (CellTiter-Glo). The assay is classed as cell-based. Conditions: Homo sapiens, NCI-H1417, H1417 small cell lung cancer cell proliferation. In short, it runs like this: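 Cells exposed to 8 compound concentrations (5-fold dilutions) in BEGM with 10% FBS for 7 days at 37° C., 5% CO2. Viable cells measured by CellTiter-Glo luminescence; inhibition versus no-inhibitor and no-cell controls, IC50 fitted.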

The structures appear in SMILES notation. pIC50: −log10 of the molar value. Where a name gives a salt, the structure may show the parent alone.

HDAC1, sequence (Q13547 whole entry, canonical isoform): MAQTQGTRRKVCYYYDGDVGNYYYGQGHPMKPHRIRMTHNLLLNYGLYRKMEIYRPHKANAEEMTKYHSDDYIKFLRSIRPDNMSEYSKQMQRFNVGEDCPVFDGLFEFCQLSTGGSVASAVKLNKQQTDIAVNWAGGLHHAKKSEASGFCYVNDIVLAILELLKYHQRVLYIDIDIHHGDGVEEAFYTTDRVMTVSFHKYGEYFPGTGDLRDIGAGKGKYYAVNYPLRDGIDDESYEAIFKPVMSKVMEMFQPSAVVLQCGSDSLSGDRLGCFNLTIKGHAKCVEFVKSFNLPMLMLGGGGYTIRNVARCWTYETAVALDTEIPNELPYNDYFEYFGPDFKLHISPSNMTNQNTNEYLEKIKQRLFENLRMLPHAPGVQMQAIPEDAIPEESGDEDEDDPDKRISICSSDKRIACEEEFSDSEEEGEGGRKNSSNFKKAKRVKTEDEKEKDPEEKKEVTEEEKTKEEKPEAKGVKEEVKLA

For `N#Cc1ccc(-c2c(-c3ccc(/C=C/C(=O)NO)c(O)c3)cnc(N3CCC(N)CC3)c2C#N)cc1F` [Example 62, (E)-3-(4-(6-(4-Aminopiperidin-1-yl)-5-cyano-4-(4-cyano-3-fluorophenyl)pyridin-3-yl)-2-hydroxyphenyl)-N-hydroxyacrylamide hydrochloride], the pIC50 in the assay on NCI-H69 cells was 5.49; in the assay with NCI-H526 cells it was 5.92; at LSD1 it was 9.31; with NCI-H1417 cells, 8.01. Further, the values for the IC50 on pan-HDAC, on HDAC8 and on HDAC1 were 5.53 nM, 3190 nM and 17.3 nM, respectively.

For the compound `COc1ccc(-c2cnc(N3CCC(NC(C)(C)c4ccc(/C=C/C(=O)NO)cc4)CC3)c(C#N)c2-c2ccc(C#N)c(F)c2)cc1O` [Example 179, (E)-3-(4-(2-((1-(3-Cyano-4-(4-cyano-3-fluorophenyl)-5-(3-hydroxy-4-methoxyphenyl)pyridin-2-yl)piperidin-4-yl)amino)propan-2-yl)phenyl)-N-hydroxyacrylamide formate], the pIC50 is 8.56 with NCI-H69 cells, 8.35 with NCI-H526 cells, 7.00 on LSD1 and 8.44 in the assay with NCI-H1417 cells. The IC50 against pan-HDAC was 3.1 nM; at HDAC8, 374 nM; at HDAC1 it was 1.74 nM.

Consider `COc1ccc(-c2cnc(N3CCC(NCc4ccc(OCC(=O)NO)cc4)CC3)c(C#N)c2-c2ccc(C#N)c(F)c2)cc1O` [Example 181], for which the pIC50 is 7.88 in the assay on NCI-H69 cells, 7.55 in the assay on NCI-H526 cells, 9.89 against LSD1 and 8.53 in the assay with NCI-H1417 cells. The figures for the IC50 on pan-HDAC, on HDAC8 and at HDAC1 were 2.11 nM, 75.1 nM and 0.08 nM, respectively.

For the compound `N#Cc1ccc(-c2c(-c3ccc4cn[nH]c4c3)cnc(N3CCC(NCc4ccc(/C=C/C(=O)NO)nc4)CC3)c2C#N)cc1F` [Example 182, (E)-3-(5-(((1-(3-Cyano-4-(4-cyano-3-fluorophenyl)-5-(1H-indazol-6-yl)pyridin-2-yl)piperidin-4-yl)amino)methyl)pyridin-2-yl)-N-hydroxyacrylamide formate], the pIC50 is 8.36 with NCI-H69 cells, 8.15 in the assay with NCI-H526 cells, 10.05 against LSD1 and 8.03 in the assay on NCI-H1417 cells. The IC50 against pan-HDAC was 3.02 nM; at HDAC8, 30.1 nM; at HDAC1, 1.3 nM.

For `N#Cc1ccc(-c2c(-c3ccc4cn[nH]c4c3)cnc(N3CCC(NCc4cnc(/C=C/C(=O)NO)nc4)CC3)c2C#N)cc1F` [Example 184, (E)-3-(5-((1-(3-Cyano-4-(4-cyano-3-fluorophenyl)-5-(1H-indazol-6-yl)pyridin-2-yl)piperidin-4-yl)amino)methyl) pyrimidin-2-yl)-N-hydroxyacrylamide formate], the pIC50 in the assay on NCI-H69 cells is 8.05; in the assay on NCI-H526 cells, 7.80; against LSD1 it was 10.05; with NCI-H1417 cells, 7.99. For the same compound, the IC50 at pan-HDAC is 6.58 nM; on HDAC8 it was 45.2 nM; at HDAC1, 1.69 nM.

With `CC(C)(O)COc1ccc(-c2cnc(N3CCC(NCc4cnc(/C=C/C(=O)NO)nc4)CC3)c(C#N)c2-c2ccc(C#N)c(F)c2)cc1O` [Example 187, (E)-3-(5-(((1-(3-Cyano-4-(4-cyano-3-fluorophenyl)-5-(3-hydroxy-4-(2-hydroxy-2-methylpropoxy)phenyl)pyridin-2-yl)piperidin-4-yl)amino)methyl)pyrimidin-2-yl)-N-hydroxyacrylamide formate], the pIC50 in the assay on NCI-H69 cells was 7.83; with NCI-H526 cells, 7.68; against LSD1, 8.39; in the assay on NCI-H1417 cells, 8.31. The IC50 worked out at 3.71 nM against pan-HDAC, 15.5 nM at HDAC8 and 1.98 nM on HDAC1.

With `CC(C)(O)COc1ccc(-c2cnc(N3CCC(NCc4ccc(CCC(=O)NO)cc4)CC3)c(C#N)c2-c2ccc(C#N)c(F)c2)cc1O` [Example 188, 3-(4-(((1-(3-Cyano-4-(4-cyano-3-fluorophenyl)-5-(3-hydroxy-4-(2-hydroxy-2-methylpropoxy)phenyl)pyridin-2-yl)piperidin-4-yl)amino)methyl)phenyl)-N-hydroxypropanamide formate], the pIC50 is 7.53 in the assay with NCI-H69 cells, 7.09 in the assay on NCI-H526 cells, 9.52 against LSD1 and 8.76 in the assay on NCI-H1417 cells. The IC50 was 5.07 nM against pan-HDAC, 198 nM at HDAC8 and 3.06 nM on HDAC1.

As to `COc1ccc(-c2cnc(N3CCC(NCc4ccc(/C=C/C(=O)NO)cc4)CC3)c(C#N)c2-c2cnc(C#N)c(OC)c2)cc1O` [Example 243, (E)-3-(4-(((1-(3′,6-Dicyano-5′-(3-hydroxy-4-methoxyphenyl)-5-methoxy-[3,4′-bipyridin]-2′-yl)piperidin-4-yl)amino)methyl)phenyl)-N-hydroxyacrylamide hydrochloride], the pIC50 with NCI-H69 cells is 8.49; in the assay with NCI-H526 cells it was 7.97; against LSD1, 7.87; in the assay with NCI-H1417 cells, 7.98. Also, the IC50 turned out to be 1.74 nM at pan-HDAC and 0.6 nM on HDAC1.

Turning to `N#Cc1ccc(-c2c(-c3ccc(N4CCOCC4)c(O)c3)cnc(N3CCC(NCc4ccc(/C=C/C(=O)NO)cc4)CC3)c2C#N)cn1` [Example 244, (E)-3-(4-(((1-(3′,6-Dicyano-5′-(3-hydroxy-4-morpholinophenyl)-[3,4′-bipyridin]-2′-yl)piperidin-4-yl)amino)methyl)phenyl)-N-hydroxyacrylamide formate], the pIC50 is 8.78 in the assay on NCI-H69 cells, 7.79 in the assay with NCI-H526 cells, 9.01 at LSD1 and 8.55 in the assay with NCI-H1417 cells. For the same compound, the IC50 on pan-HDAC is 1.54 nM; on HDAC1 it was 0.51 nM.

For the compound `COc1ccc(-c2cnc(N3CCC(NCc4ccc(/C=C/C(=O)NO)cc4)CC3)c(C#N)c2-c2cnc(C#N)c(C)c2)cc1O` [Example 247, (E)-3-(4-(((1-(3′,6-Dicyano-5′-(3-hydroxy-4-methoxyphenyl)-5-methyl-[3,4′-bipyridin]-2′-yl)piperidin-4-yl)amino)methyl)phenyl)-N-hydroxyacrylamide formate], the pIC50 is 8.50 in the assay with NCI-H69 cells, 8.12 with NCI-H526 cells, 8.46 against LSD1 and 8.31 in the assay on NCI-H1417 cells. For the same compound, the concentration for half-maximal inhibition (IC50) on pan-HDAC is 0.87 nM; on HDAC1, 0.84 nM.

On to `COc1ccc(-c2cnc(N3CCC(NCc4ccc(/C=C/C(=O)NO)cc4)CC3)c(C#N)c2-c2ccc([N+](=O)[O-])nc2)cc1O` [Example 248, (E)-3-(4-(((1-(3′-Cyano-5′-(3-hydroxy-4-methoxyphenyl)-6-nitro-[3,4′-bipyridin]-2′-yl)piperidin-4-yl)amino)methyl)phenyl)-N-hydroxyacrylamide formate], for which the pIC50 in the assay with NCI-H69 cells is 8.40; with NCI-H526 cells it was 8.04; at LSD1 it was 9.09; in the assay on NCI-H1417 cells, 8.27. Further, the values for the IC50 at pan-HDAC and at HDAC1 were 0.62 nM and 0.61 nM, respectively.
